The record followed here is US20150119410A1, “BIOMARKERS OF RESPONSE TO NAE INHIBITORS” (MILLENNIUM PHARMACEUTICALS, INC., priority 2011, published 2015).

As usually defined, the viability is a per cent measure of how many cells are alive, often set against a control. A lower viability goes with more harm to the cells.

Common to all, as to type: cell-based
In one assay the test system is S-117. Kind of assay: Cell line panel 1 viability screen. The conditions noted are these: S-117 (soft_tissue). In outline:
(§1)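 Cells were exposed to MLN4924 at 20 nM, 200 nM and 2 μM for 72 hours. Cell number was read by fluorescence of a cell-permeant nucleic acid stain, and the triplicate mean was expressed as percentage of control versus DMSO. Sensitivity calls used viability at 2 μM.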

Another assay deals with SN12C. Kind of assay: Cell line panel 1 viability screen. The conditions noted are these: SN12C (kidney). An outline of the steps: as §1
The next assay concerns LK-2. The assay can be described thus: Cell line panel 1 viability screen. The conditions noted are these: Homo sapiens; LK-2 (lung); 2 μM MLN4924, 72 hours; DMSO control about 1. An outline of the steps: as §1
The subject of a further assay is p21. Kind of assay: Western blot of p21 in TP53 −/− HCT-116 cells. Particulars: TP53 −/− HCT-116 cells treated with MLN4924. For orientation: In western blotting, separated proteins are transferred to a membrane and probed.
In a further assay the test system is HCT-116 TP53 +/+ cells. Kind of assay: ATPlite viability assay, isogenic HCT-116 pair. Particulars: Homo sapiens, HCT-116 TP53 +/+ (wild-type), 72 h, read-out: LC50 (the source's name). How it is done:
(§2) Paired isogenic HCT-116 cell lines that were either wild-type (+/+) or null (−/−) for p53 expression (HD PAR-018 and HD 104-001, respectively, Horizon Discovery Ltd) were seeded in separate 384-well plates and then treated the following day with a titration of MLN4924 triplicate, and incubated for 24, 36, 48 or 72 h, with seeding densities of 1600, 1200, 800, and 400 cells/well, respectively. Following compound incubation, viability of HCT-116 cells was assessed by ATPlite assay (Perkin Elmer) according to the manufacturer's instructions using the LEADseeker imaging system (GE Healthcare).
(Cellular ATP, detected with luciferase, serves as a proxy for viable cell number.)

The subject of the next assay is HCT-116 TP53 −/− cells. The assay can be described thus: ATPlite viability assay, isogenic HCT-116 pair. The protocol: as §2
[1] abbreviates: Homo sapiens, 2 μM MLN4924, 72 hours, DMSO control about 1.

On to `NS(=O)(=O)OC[C@@H]1C[C@@H](n2ccc3c(N[C@H]4CCc5ccccc54)ncnc32)C[C@@H]1O` [MLN4924, ((1S,2S,4R)-4-{4-[(1S)-2,3-dihydro-1H-inden-1-ylamino]-7H-pyrrolo[2,3-d]pyrimidin-7-yl}-2-hydroxycyclopentyl)methyl sulphamate], for which the figures for the viability at 2 µM in the assay on S-117 (setting [1]), in the assay on SN12C (setting [1]) and in the assay on LK-2 were 64.1%, 33.6% and 28.9%, respectively. Further, the Phenotype entry with S-117 (NF2 mutant) is reported as “resistant (values greater than the 3rd quartile of all POC's in the panel (>0.75) insensitivity or resistance)”; with SN12C (NF2 mutant), “sensitive (median POC values of less than the median value of all POC's recorded in the panel (<0.34) indicated sensitivity)”. Further, the “p21 level (Western blots)” value in the assay with p21 is on record as “still up-regulated”. Further, the CC50 with HCT-116 TP53 +/+ cells was 21 ± 1 nM; in the assay on HCT-116 TP53 −/− cells (Homo sapiens, HCT-116 TP53 −/− (null), 72 h, ATPlite, read-out: LC50 (the source's name)), 74 ± 5 nM. Moreover, the “cell death at the highest drug concentrations” value with HCT-116 TP53 −/− cells (TP53 −/− versus TP53 +/+ HCT-116, 24, 36, and 48 h) was “less cell death”.
